Results from patent US20170340584A1 (priority 2014, published 2017).
Values joined by “and” are separate entries in the source; they are usually repeats but may differ in a detail not shown here. Equal values may be shown once.

Legend:
[1] = Body weight and body weight gain of high-fat diet mice; assay type: in vivo, mice (C57BL/6); conditions: for Body weight gain, Mean / Body weight, Mean: sample in drinking water, metformin 250 mg/kg
Experimental: (§1) Using 8-week-old male mice (C57BL/6) (purchased from CoreTech), anti-diabetic candidate materials were evaluated using a GTT (Glucose Tolerance Test) that is a typical method for diagnosis of diabetes.
(§2) Mice were housed at a temperature of 22±2° C. and a relative humidity of 55-60% with 12-hr light/12-hr dark cycles. Five animals were allotted to each group, and mice from the same mother were grouped into one group, because male mice tend to fight together.
(§3) As feed, high-fat diet (60% of calories from fat; Research Diet Inc., New Brunswick, N.J.) and water were fed ad libitum for 10 weeks. Herein, the water fed contained the samples prepared in Examples 1-2 (3), 2-1, 2-4-1, 2-4-2 and 2-5. As a positive control, metformin (M-072, Sigma) (250 mg/kg) was used, and as a control, the samples prepared in Comparative Examples 1-1, 2-3-2, 2-5-1, 2-5-2 and 2-6 were used.
(§4) For reference, each of the samples prepared in Examples 2-4-1, 2-4-2 and 2-5 was set to the amount to be taken by an adult (60 kg) for 3 days, and the amount was converted into a mouse dose (12-fold/kg, see the US NIH guidance), thereby preparing animal feed. Namely, the amount to be taken by an adult (60 kg) for 3 days is 180-day dose/kg, which corresponds to 15-day dose/kg for mice. Thus, the amount corresponds to 750-day dose/mouse (20 g), because the average weight of mice is about 20 g. Thus, one mouse was allowed to take 1/750 of the prepared sample each day.
(§5) In addition, each of the samples prepared in Examples 1-2 (3) and 2-1 was set to the amount to be taken by an adult (60 kg) for 2 days, and the amount was converted into a mouse dose (12-fold/kg, see the US NIH guidance), thereby preparing animal feed. Namely, the amount to be taken by an adult (60 kg) for 2 days is 120-day dose/kg, which corresponds to 10-day dose/kg for mice. Thus, the amount corresponds to 500-day dose/mouse (20 g), because the average weight of mice is about 20 g. Thus, one mouse was allowed to take 1/500 of the prepared sample each day.
The diet intake and the body weight gain were measured weekly for 8 weeks. The body weight and the diet intake were measured immediately before first drug administration, and then measured at one-week intervals.
(§6) Meanwhile, experimental analysis results were expressed as mean±S.E.M., and the significance between test groups was statistically processed using Student T-TEST, and then the significance was verified at *P<0.05.

[2] = Scanning electron microscope (SEM) analysis, particle size; assay type: physicochemical
Description: For reference, an analysis instrument and analysis conditions are as follows. (1) Analysis instrument: HITACHI (S-2700), Japan (2) Electron gun: Tungsten filament type (3) Resolution: 4.0 nm (4) Accelerating voltage: 15.0 kV.

[3] = Blood biochemistry (triglyceride, AST, ALT) in high-fat diet mice; assay type: in vivo, mice (C57BL/6); conditions: blood
Experimental: as §1, §3
In blood biochemistry, insulin (AKRIN-011T, Shibayagi, Japan), glucose (AM202, Asan Pharmaceutical Co., Ltd., Korea), triglyceride (AM157, Asan Pharmaceutical Co., Ltd.), total cholesterol (AM202, Asan Pharmaceutical Co., Ltd.), AST and ALT (Asan Pharmaceutical Co., Ltd.) were analyzed using enzymatic assay kits.
At 10 weeks of high-fat diet feeding, the mice were sacrificed by cervical dislocation to obtain serum. For histological examination, the liver, white adipose tissue (WAT), brown adipose tissue (BAT) and kidney were fixed with formalin (50-00-0, Junsei, Japan), and the remaining organs were stored at −70° C. The blood sampled from the heart was coagulated to obtain serum which was then stored at −70° C.
as §6

[4] = Glucose tolerance test (GTT) in high-fat diet mice; assay type: in vivo, mice (C57BL/6); conditions: for Glucose level (mg/dl), Mean: GTT, high-fat diet mice
Experimental: as §1, §2, §3, §4, §5
At 8 weeks of high-fat diet feeding, a glucose tolerance test (GTT) was performed. For 8 hours for the test, mice were fasted. Then, blood was sampled from the tail vein, and initial blood glucose levels were measured with a blood glucose meter (AUTO-CHEK, Diatech Korea). Then, glucose was administered intraperitoneally to the mice at a concentration of 1 g/kg, and after 30 min, 60 min, 90 min and 120 min, blood was sampled from the mice, followed by measurement of blood glucose levels (each group consisting of five animals).
as §6

[5] = Thermogravimetric analysis (TGA); assay type: physicochemical; conditions: first-order differentiation of TGA; N2, 20° C./min
Experimental: For reference, an analysis instrument and analysis conditions are as follows. (1) Analysis instrument: TGA 7 (Perkin-Elmer) (2) Atmosphere: N2 gas (3) Heating rate: 20° C./min (4) Range: 50 to 600° C.

[6] = test system: plasma; experiment: Anticoagulant activity: prothrombin time (PT); assay type: biochemical, human; conditions: 20 μl sample + 80 μl plasma, test material g/dL (Asp 7.5 mg/Ml)
Experimental: (§7) Antithrombotic (anticoagulant) activity was evaluated according to a previously reported method. Each of thromborel S, actin and thrombin, which are reagents for Sysmex CA-1500 for analysis of PT, aPTT and TT, was mounted in Sysmex CA-1500 (Siemens Healthcare, Germany) which is an automated blood coagulation test device. According to the automated procedure of the test device, clotting time (sec) (prothrombin time (PT), activated partial thromboplastin time (aPTT) and thrombin time (TT)) was measured. A sufficient amount of a sample for each of the three analyses was about 400 uL of an 80:20 mixture of plasma and a test substance.
(§8) The isolated plasma was used in an experiment in a fresh state within 5-6 hours.
(§9) In this experiment, for the relative comparison of the measured clotting time (sec) (PT, aPTT and TT) between test groups, clotting time prolongation (%) relative to triple distilled water (purified water) that is a normal control test sample was statistically analyzed. For statistical analysis, the […] anticoagulant activities of test materials were comparatively analyzed using SPSS IBM version 21.0 by one-way ANOVA at p<0.05, and significance comparison between groups was performed by Duncan's test.
(§10) The aspirin solution was immediately used at room temperature in a light-shielded state or was cold-stored.
(§11) As a control, aspirin was used, and as a vehicle control, triple distilled water (purified water) was used instead of the sample.

[7] = test system: plasma; experiment: Anticoagulant activity: activated partial thromboplastin time (aPTT); assay type: biochemical, human; conditions: 20 μl sample + 80 μl plasma, test material g/dL (Asp 7.5 mg/Ml)
Experimental: as §7, §8, §9, §10, §11

[8] = test system: plasma; experiment: Anticoagulant activity: thrombin time (TT); assay type: biochemical, human; conditions: 20 μl sample + 80 μl plasma, test material g/dL (Asp 7.5 mg/Ml)
Experimental: as §7, §8, §9, §10, §11

## NCCS(=O)(=O)O [DT19, taurine]
[1]; 1 week
  Body weight gain, Mean: 2.20 g
  Body weight, Mean: 21.46 g
[1]; 2 weeks
  Body weight gain, Mean: 4.36 g
  Body weight, Mean: 23.62 g
[1]; 3 weeks
  Body weight gain, Mean: 5.34 g
  Body weight, Mean: 24.60 g
[1]; 4 weeks
  Body weight gain, Mean: 6.52 g
  Body weight, Mean: 25.78 g
[1]; 5 weeks
  Body weight gain, Mean: 8.12 g
  Body weight, Mean: 27.38 g
[1]; 6 weeks
  Body weight gain, Mean: 7.94 g
  Body weight, Mean: 27.20 g
[1]; 7 weeks
  Body weight gain, Mean: 8.80 g
  Body weight, Mean: 28.06 g
[1]; 8 weeks
  Body weight, Mean: 28.78 g
[1]; before administration
  Body weight, Mean: 19.26 g
[2]
  Average particle size: 222.06 μm
  Median particle size: 192.92 μm
[3]
  ALT level (IU/L), Mean: 25.47 IU/L
  AST level (IU/L), Mean: 118.63 IU/L
  Triglyceride level (mg/dl), Mean: 116.20 mg/dL
[4]; 0 min
  Glucose level (mg/dl), Mean: 111.80 mg/dL
[4]; 30 min
  Glucose level (mg/dl), Mean: 298.00 mg/dL
[4]; 60 min
  Glucose level (mg/dl), Mean: 295.60 mg/dL
[4]; 90 min
  Glucose level (mg/dl), Mean: 189.40 mg/dL
[4]; 120 min
  Glucose level (mg/dl), Mean: 119.00 mg/dL
[4]; at 8 weeks of high-fat diet feeding, 8 hours fasted
  Fasting glucose level: lower than that of the mice administered with high-fat diet (HFD), and were similar to the blood glucose levels of normal mice
[4]; at 8 weeks of high-fat diet feeding, glucose 1 g/kg intraperitoneally, 30-120 min
  Glucose control ability in GTT: significantly higher than that of the group administered with HFD alone
[5]
  Final decomposition temperature: 394 °C
  First decomposition temperature: 362 °C

## O=C(CO)[C@@H](O)[C@H](O)[C@H](O)CO [Fruc 6.2, fructose]
[6]; Table 4
  PT, clotting time prolongation relative to purified water, Mean: 0.54%
[7]; Table 4
  aPTT, clotting time prolongation relative to purified water, Mean: −0.20%
[8]; Table 4
  TT, clotting time prolongation relative to purified water, Mean: 13.19%

## CN(C)C(=N)N=C(N)N [Metformin, metformin]
[1]; 1 week
  Body weight (g), Mean: 23.550 g and 25.094 g
  Body weight gain, Mean: 1.70 g
  Body weight, Mean: 21.00 g
[1]; 2 weeks
  Body weight (g), Mean: 23.608 g and 26.344 g
  Body weight gain (g), Mean: 2.503 g and 2.406 g
  Body weight gain, Mean: 3.48 g
  Body weight, Mean: 22.78 g
[1]; 3 weeks
  Body weight (g), Mean: 25.125 g and 27.430 g
  Body weight gain (g), Mean: 4.020 g and 3.492 g
  Body weight gain, Mean: 4.54 g
  Body weight, Mean: 23.84 g
[1]; 4 weeks
  Body weight (g), Mean: 25.705 g and 27.708 g
  Body weight gain (g), Mean: 4.600 g and 3.770 g
  Body weight gain, Mean: 5.88 g
  Body weight, Mean: 25.18 g
[1]; 5 weeks
  Body weight (g), Mean: 27.198 g and 28.572 g
  Body weight gain (g), Mean: 6.093 g and 4.634 g
  Body weight gain, Mean: 6.42 g
  Body weight, Mean: 25.72 g
[1]; 6 weeks
  Body weight (g), Mean: 28.355 g and 28.772 g
  Body weight gain (g), Mean: 7.250 g and 4.834 g
  Body weight gain, Mean: 7.04 g
  Body weight, Mean: 26.34 g
[1]; 7 weeks
  Body weight (g), Mean: 27.368 g and 28.468 g
  Body weight gain (g), Mean: 6.263 g and 4.530 g
  Body weight gain, Mean: 8.22 g
  Body weight, Mean: 27.52 g
[1]; 8 weeks
  Body weight (g), Mean: 29.343 g and 27.608 g
  Body weight gain, Mean: 8.90 g
  Body weight, Mean: 28.20 g
[1]; before administration
  Body weight (g), Mean: 21.105 g and 23.938 g
  Body weight, Mean: 19.30 g
[3]
  Triglyceride level (mg/dl), Mean: 62.99 mg/dL
[4]; 0 min
  Glucose level (mg/dl), Mean: 144.20 mg/dL and 104.40 mg/dL
[4]; 30 min
  Glucose level (mg/dl), Mean: 386.40 mg/dL and 438.40 mg/dL
[4]; 60 min
  Glucose level (mg/dl), Mean: 301.40 mg/dL and 296.40 mg/dL
[4]; 90 min
  Glucose level (mg/dl), Mean: 194.40 mg/dL and 178.00 mg/dL
[4]; 120 min
  Glucose level (mg/dl), Mean: 135.20 mg/dL and 146.20 mg/dL

## O=C(CO)[C@@H](O)[C@H](O)[C@H](O)CO [Fruc 12.4, fructose]
[6]; Table 4
  PT, clotting time prolongation relative to purified water, Mean: 0.54%
[7]; Table 4
  aPTT, clotting time prolongation relative to purified water, Mean: 0.58%
[8]; Table 4
  TT, clotting time prolongation relative to purified water, Mean: 30.07%

## CC(=O)Oc1ccccc1C(=O)O [Asp, aspirin]
[6]; Table 2
  PT, clotting time prolongation relative to purified water, Mean: 9.90%
[6]; Table 3
  PT, clotting time prolongation relative to purified water, Mean: 17.51%
[6]; Table 4
  PT, clotting time prolongation relative to purified water, Mean: 26.02%
[7]; Table 2
  aPTT, clotting time prolongation relative to purified water, Mean: 7.31%
[7]; Table 3
  aPTT, clotting time prolongation relative to purified water, Mean: 16.28%
[7]; Table 4
  aPTT, clotting time prolongation relative to purified water, Mean: 29.82%
[8]; Table 2
  TT, clotting time prolongation relative to purified water, Mean: 13.59%
[8]; Table 3, values excluding one sample showing an extreme value
  *TT, clotting time prolongation relative to purified water, Mean: 20.96%
[8]; Table 4
  TT, clotting time prolongation relative to purified water, Mean: 23.95%
